The values below come from patent US20120015967A1, “PYRIMIDINE AND PYRIDINE DERIVATIVES AS POSH AND POSH-AP INHIBITORS” (PROTEOLOGICS, LTD., priority 2007, published 2012).

Read-outs that look alike come from different tables or passages of the source. Where only a bound is given, the exact number is not on record here.

Data set [1] has as its target T1, hPOSH (Homo sapiens, UniProt Q7Z6J0).
T1 construct: a fused GST-RING subunit of POSH protein and two fluorophore-conjugated detection reagents
T1 sequence (Q7Z6J0 12-53 limits assumed): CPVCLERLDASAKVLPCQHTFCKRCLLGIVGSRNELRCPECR
The experiment in a line: HTS TR-FRET assay of POSH autoubiquitination. To be noted: in vitro TR-FRET, GST tagged hPOSH with E1 and UbcH5c; read-out: IC50, inhibition of POSH autoubiquitination. It counts as biochemical. How it is done:
In order to test compounds as inhibitors of POSH, a ubiquitin protein ligase (E3) containing a RING domain that mediates its own ubiquitination in a RING finger-dependent manner in the presence of E1 and E2, a HTS (high-throughput screening) homogeneous TR-FRET (Time-Resolved Fluorescence Resonance Energy Transfer) assay was conducted to monitor POSH autoubiquitination.
The assay employs an ubiquitin-activating enzyme (E1) and an ubiquitin-conjugating enzyme (E2), a fused GST-RING subunit of POSH protein and two fluorophore-conjugated detection reagents, namely anti-GSTXL665 and europium cryptate-labeled ubiquitin. This homogeneous assay is based on FRET between a Eu^3+ cryptate donor and a second fluorescent label (acceptor), allophycocyanin. Allophycocyanin, a 105 kDa phycobiliprotein, is crosslinked to ensure its stability.
The ubiquitination of POSH by ubiquitin cryptate and binding of the anti-GST tagged XL665 brings the fluorophores into close proximity allowing FRET reaction to occur (see diagram).
Self-ubiquitination of hPOSH was determined by homogenous time-resolved fluorescence resonance energy transfer assay (TR-FRET). […]
where: S=actual fluorescence, B=Fluorescence obtained in parallel incubation without cb1-b, C=Fluorescence obtained in reaction without added compounds. […]
In general terms: In TR-FRET formats the signal depends on donor and acceptor labels being close together.

For data set [2], the system named is HIV-1. The experiment in a line: Assay for virus release (HIV-1 p24 / VLP release) in Jurkat cells transfected with pNLenv1. To be noted: Human immunodeficiency virus 1, 24 h, VLP release one day after transfection, anti-CA immunoblot. It counts as cell-based. How it is done: The POSH inhibitor Compound 1 was tested for its efficiency of viral budding and GAG expression and processing in treated and untreated Jurkat cells. The concentration of extracellular GAG p24 was used as an indication of viral budding.
Jurkat cells were incubated with Compound 1 for either 1 or 3 days. The next day, cells were transfected with the plasmid pNLenv1 (2 μg/ml). Virus-like particle (VLP) release was determined one day after transfection as follows: the culture medium of virus-expressing cells was collected and centrifuged at 500×g for 10 minutes. The resulting supernatant was passed through a 0.45 μm-pore filter and the filtrate was centrifuged at 14,000×g for 2 hours at 4° C. The corresponding cells were washed three times with phosphate-buffered saline (PBS) and then solubilized by incubation on ice for 15 minutes in lysis buffer containing the following components: 50 mM Hepes-NaOH, (pH 7.5), 150 mM NaCl, 1.5 mM MgCl2, 0.5% NP-40, 0.5% sodium deoxycholate, 1 mM EDTA, 1 mM EGTA and 1:200 dilution of protease inhibitor cocktail (EMD Biosciences, Inc.). […] The CA was detected after incubation with a secondary anti-rabbit horseradish peroxidase-conjugated antibody, and detected by Enhanced Chemi-Luminescence (ECL) (Amersham Biosciences, Corp.) and detected by fluorescence imaging (Typhoon Instrument, Amersham Biosciences, Corp.). […]
A general note: In western blotting, separated proteins are transferred to a membrane and probed.

For data set [3], the system named is HIV-1IIIB. Kind of data set: HIV cytoprotection assay, CEM-SS cells infected with HIV-1IIIB (MTS). It counts as cell-based. To be noted: for IC50: read-out: IC50 (concentration inhibiting virus replication by 50%). How it is done:
(§1) For the HIV cytoprotection assay, CEM-SS cells were used and the viruses HIV-1IIIB, HIV-1RF, or HIV-2ROD.
(§2) Briefly, virus and cells were mixed in the presence of a test compounds and incubated for 6 days. […] Each assay plate contained the following controls: cell control wells (cells only), virus control wells (cells plus virus), compound toxicity control wells (cells plus compound only), compound colorimetric control wells (compound only), as well as the experimental wells (compound plus cells plus virus). Cytoprotection and compound cytotoxicity were assessed by MTS (CellTiter® 96 Reagent, Promega, Madison Wis.) dye reduction, and the IC50 (concentration inhibiting virus replication by 50%), TC50 (concentration resulting in 50% cell death) and a calculated T1 (therapeutic index TC50/IC50) were obtained. Each assay included the HIV reverse transcriptase inhibitor AZT as a positive control.

Data set [4] is described as follows: Compound cytotoxicity on uninfected CEM-SS cells (MTS). It counts as cell-based. As to conditions: human, read-out: TC50 (concentration resulting in 50% cell death). How it is done:
as §2

Data set [5] concerns HIV-2ROD. Kind of data set: HIV cytoprotection assay, CEM-SS cells infected with HIV-2ROD (MTS). It counts as cell-based. How it is done:
as §1, §2

`Cc1cc(C)nc(NS(=O)(=O)c2cc(Cl)ccc2Cl)n1` [Compound 1, 2,5-dichloro-N-(4,6-dimethylpyrimidin-2-yl)benzenesulfonamide]: the IC50 in data set [1] was 12 µM; in data set [2], 100 µM; in data set [3] (Human immunodeficiency virus 1, CEM-SS, 144 h), 62 µM. In data set [3] (HIV-1IIIB, CEM-SS cells), the “Antiviral Index (TI), TC50/IC50” value is over 1.61. Also, the CC50 at 6 days in data set [4] (Table 1 (HIV-1IIIB experiment)) is over 100 µM.
As to `Cc1cc(C)nc(NS(=O)(=O)c2cc(Cl)ccc2Cl)c1` [Compound 2, 2,5-dichloro-N-(4,6-dimethylpyridin-2-yl)benzenesulfonamide], the “Antiviral Index (TI), TC50/IC50” value came out at 28.5 in data set [3] (HIV-1IIIB, CEM-SS cells) and 3.80 in data set [5]. For the same compound, the IC50 was found to be 3.99 µM in data set [3] (Human immunodeficiency virus 1, 144 h, HIV-1IIIB, CEM-SS cells, 6 days) and 44.4 µM in data set [5] (Human immunodeficiency virus 2, 144 h, 6 days, read-out: IC50 (concentration inhibiting virus replication by 50%)). For the same compound, the CC50 at 6 days in data set [4] (Table 1 (HIV-1IIIB experiment)) came out at 114 µM; in data set [4] (Table 2 (HIV-2ROD experiment)), 169 µM.
